Values belong to the molecule of their own block, whether it stands above or below them.
Columns and labels:
Rattus norvegicus [1] = test: Total electrolytic excretion of potassium in urine of rats after peroral administration of 31.6 uM/Kg of drug; assay type: ADME, organism-based; conditions: in vivo, po
Rattus norvegicus [2] = test: Total electrolytic excretion of chlorine in urine of rats after peroral administration of 316 uM/Kg of drug; assay type: ADME, organism-based; conditions: in vivo, po
Rattus norvegicus [3] = test: Tested for the diuretic activity by measuring the urinary volume after peroral administering 31.6 uM/Kg of drug in rats; assay type: ADME, organism-based, Urine; conditions: in vivo, po
Rattus norvegicus [4] = test: Total electrolytic excretion of sodium in urine of rats after peroral administration of 316 uM/Kg of drug; assay type: ADME, organism-based; conditions: in vivo, po
Rattus norvegicus [5] = test: Total electrolytic excretion of sodium in urine of rats after peroral administration of 31.6 uM/Kg of drug; assay type: ADME, organism-based; conditions: in vivo, po
Rattus norvegicus [6] = test: Ratio of Total electrolytic excretion of sodium and potassium in urine of rats after peroral administration of 94.9 uM/Kg of drug; assay type: ADME, organism-based; conditions: in vivo, po
Rattus norvegicus [7] = test: Total electrolytic excretion of chlorine in urine of rats after peroral administration of 94.9 uM/Kg of drug; assay type: ADME, organism-based; conditions: in vivo, po
Rattus norvegicus [8] = test: Total electrolytic excretion of sodium in urine of rats after peroral administration of 94.9 uM/Kg of drug; assay type: ADME, organism-based; conditions: in vivo, po
Rattus norvegicus [9] = test: Total electrolytic excretion of potassium in urine of rats after peroral administration of 94.9 uM/Kg of drug; assay type: ADME, organism-based; conditions: in vivo, po
Rattus norvegicus [10] = test: Tested for the diuretic activity by measuring the urinary volume after peroral administering 94.9 uM/Kg of drug in rats; assay type: ADME, organism-based, Urine; conditions: in vivo, po
Rattus norvegicus [11] = test: Total electrolytic excretion of chlorine in urine of rats after peroral administration of 31.6 uM/Kg of drug; assay type: ADME, organism-based; conditions: in vivo, po
Rattus norvegicus [12] = test: Ratio of Total electrolytic excretion of sodium and potassium in urine of rats after peroral administration of 31.6 uM/Kg of drug; assay type: ADME, organism-based; conditions: in vivo, po
Rattus norvegicus [13] = test: Tested for the diuretic activity by measuring the urinary volume after peroral administering 316 uM/Kg of drug in rats; assay type: ADME, organism-based, Urine; conditions: in vivo, po
Rattus norvegicus [14] = test: Total electrolytic excretion of potassium in urine of rats after peroral administration of 316 uM/Kg of drug; assay type: ADME, organism-based; conditions: in vivo, po
Rattus norvegicus [15] = test: Ratio of Total electrolytic excretion of sodium and potassium in urine of rats after peroral administration of 316 uM/Kg of drug; assay type: ADME, organism-based; conditions: in vivo, po
Rattus norvegicus [16] = test: Total electrolytic excretion of sodium in urine of rats after intravenous administration of 7.94 uM/Kg of drug; assay type: ADME, organism-based; conditions: in vivo
Rattus norvegicus [17] = test: Total electrolytic excretion of potassium in urine of rats after peroral administration of 265 uM/Kg of drug; assay type: ADME, organism-based; conditions: in vivo, po
Rattus norvegicus [18] = test: Ratio of Total electrolytic excretion of sodium and potassium in urine of rats after peroral administration of 26.5 uM/Kg of drug; assay type: ADME, organism-based; conditions: in vivo, po
Rattus norvegicus [19] = test: Tested for the diuretic activity by measuring the urinary volume after peroral administering 26.5 uM/Kg of drug in rats; assay type: ADME, organism-based, Urine; conditions: in vivo, po
Rattus norvegicus [20] = test: Total electrolytic excretion of potassium in urine of rats after peroral administration of 7.94 uM/Kg of drug; assay type: ADME, organism-based; conditions: in vivo, po
Rattus norvegicus [21] = test: Ratio of Total electrolytic excretion of sodium and potassium in urine of rats after peroral administration of 265 uM/Kg of drug; assay type: ADME, organism-based; conditions: in vivo, po
Rattus norvegicus [22] = test: Total electrolytic excretion of potassium in urine of rats after peroral administration of 79.4 uM/Kg of drug; assay type: ADME, organism-based; conditions: in vivo, po
Rattus norvegicus [23] = test: Tested for the diuretic activity by measuring the urinary volume after peroral administering 265 uM/Kg of drug in rats; assay type: ADME, organism-based, Urine; conditions: in vivo, po
Rattus norvegicus [24] = test: Total electrolytic excretion of chlorine in urine of rats after peroral administration of 26.5 uM/Kg of drug; assay type: ADME, organism-based; conditions: in vivo, po
Rattus norvegicus [25] = test: Total electrolytic excretion of sodium in urine of rats after peroral administration of 79.4 uM/Kg of drug; assay type: ADME, organism-based; conditions: in vivo, po
Rattus norvegicus [26] = test: Total electrolytic excretion of chlorine in urine of rats after peroral administration of 265 uM/Kg of drug; assay type: ADME, organism-based; conditions: in vivo, po
Rattus norvegicus [27] = test: Total electrolytic excretion of sodium in urine of rats after peroral administration of 265 uM/Kg of drug; assay type: ADME, organism-based; conditions: in vivo, po
Rattus norvegicus [28] = test: Ratio of Total electrolytic excretion of sodium and potassium in urine of rats after intravenous administration of 7.94 uM/Kg of drug; assay type: ADME, organism-based; conditions: in vivo
Rattus norvegicus [29] = test: Total electrolytic excretion of chlorine in urine of rats after intravenous administration of 7.94 uM/Kg of drug; assay type: ADME, organism-based; conditions: in vivo
Rattus norvegicus [30] = test: Total electrolytic excretion of sodium in urine of rats after peroral administration of 26.5 uM/Kg of drug; assay type: ADME, organism-based; conditions: in vivo, po
Rattus norvegicus [31] = test: Total electrolytic excretion of potassium in urine of rats after peroral administration of 26.5 uM/Kg of drug; assay type: ADME, organism-based; conditions: in vivo, po
Rattus norvegicus [32] = test: Tested for the diuretic activity by measuring the urinary volume after peroral administering 79.4 uM/Kg of drug in rats; assay type: ADME, organism-based, Urine; conditions: in vivo, po
Rattus norvegicus [33] = test: Ratio of Total electrolytic excretion of sodium and potassium in urine of rats after peroral administration of 79.4 uM/Kg of drug; assay type: ADME, organism-based; conditions: in vivo, po
Rattus norvegicus [34] = test: Total electrolytic excretion of chlorine in urine of rats after peroral administration of 79.4 uM/Kg of drug; assay type: ADME, organism-based; conditions: in vivo, po
Rattus norvegicus [35] = test: Total electrolytic excretion of sodium in urine of rats after peroral administration of 83.8 uM/Kg of drug; assay type: ADME, organism-based; conditions: in vivo, po
Rattus norvegicus [36] = test: Ratio of Total electrolytic excretion of sodium and potassium in urine of rats after peroral administration of 83.8 uM/Kg of drug; assay type: ADME, organism-based; conditions: in vivo, po
Rattus norvegicus [37] = test: Total electrolytic excretion of potassium in urine of rats after peroral administration of 83.8 uM/Kg of drug; assay type: ADME, organism-based; conditions: in vivo, po
Rattus norvegicus [38] = test: Tested for the diuretic activity by measuring the urinary volume after peroral administering 27.9 uM/Kg of drug in rats; assay type: ADME, organism-based, Urine; conditions: in vivo, po
Rattus norvegicus [39] = test: Ratio of Total electrolytic excretion of sodium and potassium in urine of rats after peroral administration of 27.9 uM/Kg of drug; assay type: ADME, organism-based; conditions: in vivo, po
Rattus norvegicus [40] = test: Ratio of Total electrolytic excretion of sodium and potassium in urine of rats after peroral administration of 279 uM/Kg of drug; assay type: ADME, organism-based; conditions: in vivo, po
Rattus norvegicus [41] = test: Total electrolytic excretion of sodium in urine of rats after peroral administration of 279 uM/Kg of drug; assay type: ADME, organism-based; conditions: in vivo, po
Rattus norvegicus [42] = test: Total electrolytic excretion of sodium in urine of rats after peroral administration of 27.9 uM/Kg of drug; assay type: ADME, organism-based; conditions: in vivo, po
Rattus norvegicus [43] = test: Total electrolytic excretion of potassium in urine of rats after peroral administration of 27.9 uM/Kg of drug; assay type: ADME, organism-based; conditions: in vivo, po
Rattus norvegicus [44] = test: Total electrolytic excretion of potassium in urine of rats after peroral administration of 279 uM/Kg of drug; assay type: ADME, organism-based; conditions: in vivo, po
Rattus norvegicus [45] = test: Tested for the diuretic activity by measuring the urinary volume after peroral administering 279 uM/Kg of drug in rats; assay type: ADME, organism-based, Urine; conditions: in vivo, po
Rattus norvegicus [46] = test: Total electrolytic excretion of chlorine in urine of rats after peroral administration of 27.9 uM/Kg of drug; assay type: ADME, organism-based; conditions: in vivo, po
Rattus norvegicus [47] = test: Tested for the diuretic activity by measuring the urinary volume after peroral administering 83.8 uM/Kg of drug in rats; assay type: ADME, organism-based, Urine; conditions: in vivo, po
Rattus norvegicus [48] = test: Total electrolytic excretion of chlorine in urine of rats after peroral administration of 279 uM/Kg of drug; assay type: ADME, organism-based; conditions: in vivo, po
Rattus norvegicus [49] = test: Total electrolytic excretion of chlorine in urine of rats after peroral administration of 83.8 uM/Kg of drug; assay type: ADME, organism-based; conditions: in vivo, po

Excretion K+ (Rattus norvegicus [1]): 0.28 m equiv
Excretion Cl- (Rattus norvegicus [2]): 1.4 m equiv
V (Rattus norvegicus [3]): 3.8 mL
Excretion Na+ (Rattus norvegicus [4]): 1.32 m equiv
Excretion Na+ (Rattus norvegicus [5]): 0.62 m equiv
Ratio (Rattus norvegicus [6]): 3.2
Excretion Cl- (Rattus norvegicus [7]): 0.92 m equiv
Excretion Na+ (Rattus norvegicus [8]): 0.84 m equiv
Excretion K+ (Rattus norvegicus [9]): 0.26 m equiv
V (Rattus norvegicus [10]): 6.3 mL
Excretion Cl- (Rattus norvegicus [11]): 0.65 m equiv
Ratio (Rattus norvegicus [12]): 2.2
V (Rattus norvegicus [13]): 8.9 mL
Excretion K+ (Rattus norvegicus [14]): 0.32 m equiv
Ratio (Rattus norvegicus [15]): 4.1
SMILES: C1CCC(N/C(=N/C2CCCC2)N2CCOCC2)CC1

Excretion Na+ (Rattus norvegicus [16]): 7.8 m equiv
Excretion K+ (Rattus norvegicus [17]): 0.29 m equiv
Ratio (Rattus norvegicus [18]): 4.4
V (Rattus norvegicus [19]): 9.5 mL
Excretion K+ (Rattus norvegicus [20]): 1.3 m equiv
Ratio (Rattus norvegicus [21]): 6.1
Excretion K+ (Rattus norvegicus [22]): 0.35 m equiv
V (Rattus norvegicus [23]): 17.4 mL
Excretion Cl- (Rattus norvegicus [24]): 1.4 m equiv
Excretion Na+ (Rattus norvegicus [25]): 1.71 m equiv
Excretion Cl- (Rattus norvegicus [26]): 1.86 m equiv
Excretion Na+ (Rattus norvegicus [27]): 2.05 m equiv
Ratio (Rattus norvegicus [28]): 6.5
Excretion Cl- (Rattus norvegicus [29]): 6.5 m equiv
Excretion Na+ (Rattus norvegicus [30]): 1.44 m equiv
Excretion K+ (Rattus norvegicus [31]): 0.33 m equiv
V (Rattus norvegicus [32]): 12.3 mL
Ratio (Rattus norvegicus [33]): 4.8
Excretion Cl- (Rattus norvegicus [34]): 1.7 m equiv
SMILES: Cc1cccc(C)c1N/C(=N/C1CCCCC1)N1CCOCC1

Excretion Na+ (Rattus norvegicus [35]): 1.01 m equiv
Ratio (Rattus norvegicus [36]): 3.5
Excretion K+ (Rattus norvegicus [37]): 0.29 m equiv
V (Rattus norvegicus [38]): 6.2 mL
Ratio (Rattus norvegicus [39]): 3
Ratio (Rattus norvegicus [40]): 4.7
Excretion Na+ (Rattus norvegicus [41]): 1.45 m equiv
Excretion Na+ (Rattus norvegicus [42]): 0.72 m equiv
Excretion K+ (Rattus norvegicus [43]): 0.24 m equiv
Excretion K+ (Rattus norvegicus [44]): 0.31 m equiv
V (Rattus norvegicus [45]): 11.2 mL
Excretion Cl- (Rattus norvegicus [46]): 0.84 m equiv
V (Rattus norvegicus [47]): 7.7 mL
Excretion Cl- (Rattus norvegicus [48]): 1.46 m equiv
Excretion Cl- (Rattus norvegicus [49]): 1.06 m equiv
SMILES: Clc1ccccc1N/C(=N/C1CCCCC1)N1CCOCC1

Source: ChEMBL document CHEMBL1127385, “Synthesis and diuretic activity of alkyl- and arylguanidine analogs of N,N'-dicyclohexyl-4-morpholinecarboxamidine in rats and dogs” (J Med Chem, 1994)
